Counter-ions that a name gives are not always drawn.

Data on 26 molecules can be found in patent US9321776B2, “Isochromene derivatives as phoshoinositide 3-kinases inhibitors” (CHIESI FARMACEUTICI S.p.A., priority 2013, dated 2016).

Experiment [1] concerns the target T1, PI3Kδ (Homo sapiens, UniProt O00329).
T1 construct: purchased Millipore Ltd (Billerica, Mass.)
T1 sequence (O00329 1-1044): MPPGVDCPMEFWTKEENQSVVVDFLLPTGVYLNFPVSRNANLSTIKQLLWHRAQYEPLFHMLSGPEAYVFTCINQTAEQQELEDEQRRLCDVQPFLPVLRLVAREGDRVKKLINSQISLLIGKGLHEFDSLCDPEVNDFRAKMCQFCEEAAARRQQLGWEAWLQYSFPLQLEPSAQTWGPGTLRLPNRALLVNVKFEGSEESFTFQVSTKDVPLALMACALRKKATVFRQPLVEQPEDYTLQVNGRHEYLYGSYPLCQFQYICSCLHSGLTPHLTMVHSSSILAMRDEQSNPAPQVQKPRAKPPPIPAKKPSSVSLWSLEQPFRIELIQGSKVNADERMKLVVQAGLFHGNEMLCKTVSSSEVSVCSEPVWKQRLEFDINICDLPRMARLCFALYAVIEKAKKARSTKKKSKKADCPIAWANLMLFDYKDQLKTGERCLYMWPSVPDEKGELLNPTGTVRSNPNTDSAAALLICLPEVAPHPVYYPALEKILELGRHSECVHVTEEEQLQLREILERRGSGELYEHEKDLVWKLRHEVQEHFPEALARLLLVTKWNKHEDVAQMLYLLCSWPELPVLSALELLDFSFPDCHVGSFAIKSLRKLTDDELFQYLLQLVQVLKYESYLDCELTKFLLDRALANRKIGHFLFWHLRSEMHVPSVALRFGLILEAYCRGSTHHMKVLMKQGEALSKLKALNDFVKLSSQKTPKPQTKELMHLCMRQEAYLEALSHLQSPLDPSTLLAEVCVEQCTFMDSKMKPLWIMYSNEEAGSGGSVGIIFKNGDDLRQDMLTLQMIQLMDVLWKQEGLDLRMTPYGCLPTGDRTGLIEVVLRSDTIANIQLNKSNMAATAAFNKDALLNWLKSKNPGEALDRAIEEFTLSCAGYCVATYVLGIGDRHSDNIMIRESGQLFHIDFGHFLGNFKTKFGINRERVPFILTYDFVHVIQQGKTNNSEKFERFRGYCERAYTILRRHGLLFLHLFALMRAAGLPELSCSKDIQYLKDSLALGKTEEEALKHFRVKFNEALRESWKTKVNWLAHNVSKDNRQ
The experiment is described as follows: PI3K enzyme inhibitory activity in the cell free assay (ADP-Glo Kinase Assay). It counts as biochemical. To be noted: human recombinant PI3Kδ, ATP 80 μM; read-out: PI3K delta inhibition.

The target of experiment [2] is T2, PI3Kγ (Homo sapiens, UniProt P48736).
T2 construct: purchased Millipore Ltd (Billerica, Mass.)
T2 sequence (P48736 whole entry): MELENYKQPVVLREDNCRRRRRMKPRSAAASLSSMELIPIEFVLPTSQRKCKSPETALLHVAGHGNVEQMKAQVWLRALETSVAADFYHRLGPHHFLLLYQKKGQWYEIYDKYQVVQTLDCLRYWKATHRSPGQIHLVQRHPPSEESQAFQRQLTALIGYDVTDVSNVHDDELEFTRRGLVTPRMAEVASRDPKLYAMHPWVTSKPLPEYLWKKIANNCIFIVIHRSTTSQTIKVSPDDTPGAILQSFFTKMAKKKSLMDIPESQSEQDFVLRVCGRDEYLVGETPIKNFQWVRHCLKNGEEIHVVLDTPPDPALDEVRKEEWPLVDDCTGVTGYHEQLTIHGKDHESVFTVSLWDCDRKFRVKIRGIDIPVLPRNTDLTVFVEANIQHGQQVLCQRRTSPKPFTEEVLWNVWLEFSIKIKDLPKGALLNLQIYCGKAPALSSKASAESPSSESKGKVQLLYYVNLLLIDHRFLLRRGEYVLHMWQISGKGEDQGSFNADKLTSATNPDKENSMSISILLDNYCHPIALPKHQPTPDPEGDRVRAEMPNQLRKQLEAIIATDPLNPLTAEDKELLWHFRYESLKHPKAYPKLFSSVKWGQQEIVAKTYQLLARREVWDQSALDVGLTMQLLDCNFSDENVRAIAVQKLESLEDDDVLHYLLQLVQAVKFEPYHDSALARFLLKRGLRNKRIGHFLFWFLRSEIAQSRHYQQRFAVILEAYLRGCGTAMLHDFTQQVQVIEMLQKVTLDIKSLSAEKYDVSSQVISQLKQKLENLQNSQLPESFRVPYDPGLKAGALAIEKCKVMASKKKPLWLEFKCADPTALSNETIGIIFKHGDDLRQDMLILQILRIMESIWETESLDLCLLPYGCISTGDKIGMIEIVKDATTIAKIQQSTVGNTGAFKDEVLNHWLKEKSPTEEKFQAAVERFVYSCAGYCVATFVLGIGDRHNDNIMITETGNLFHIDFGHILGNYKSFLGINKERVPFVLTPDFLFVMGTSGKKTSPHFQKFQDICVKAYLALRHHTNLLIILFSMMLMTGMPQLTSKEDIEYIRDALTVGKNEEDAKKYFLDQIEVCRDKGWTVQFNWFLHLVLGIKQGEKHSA
Described as above. Type of experiment: biochemical. Particulars: human recombinant PI3Kγ, ATP 30 μM; read-out: PI3K gamma inhibition.

On to `CC(c1oc(=O)c2ccccc2c1-c1cccc(N(C)C)c1)n1cnc2c(N)ncnc21` (stereo not shown) [Example 8, 3-(1-(6-Amino-9H-purin-9-yl)ethyl)-4-(3-(dimethylamino)phenyl)-1H-isochromen-1-one], for which the IC50 in experiment [1] and in experiment [2] was 10 to 1000 nM each time.

In the case of `CC(c1oc(=O)c2ccccc2c1-c1cccc(S(=O)(=O)N2CCOCC2)c1)n1cnc2c(N)ncnc21` (stereo not shown) [Example 9, 3-(1-(6-Amino-9H-purin-9-yl)ethyl)-4-(3-(morpholinosulfonyl)phenyl)-1H-isochromen-1-one], the IC50 in experiment [1] and in experiment [2] was 10 to 1000 nM throughout.

Turning to `O=c1oc(CSc2ncnc3[nH]cnc23)c(-c2ccccc2)c2ccccc12` [Example 10, 3-((9H-Purin-6-ylthio)methyl)-4-phenyl-1H-isochromen-1-one], the IC50 in experiment [1] and in experiment [2] was > 1000 nM each time.

For `Cc1cccc(-c2c(C(C)Sc3ncnc4[nH]cnc34)oc(=O)c3ccccc23)c1` (stereo not shown) [Example 13, 3-(1-(9H-Purin-6-ylthio)ethyl)-4-m-tolyl-1H-isochromen-1-one], the IC50 was 10 to 1000 nM in experiment [1] and > 1000 nM in experiment [2].

In the case of `CC(Sc1ncnc2[nH]cnc12)c1oc(=O)c2ccccc2c1-c1cccc(F)c1` (stereo not shown) [Example 14, 3-(1-(9H-Purin-6-ylthio)ethyl)-4-(3-fluorophenyl)-1H-isochromen-1-one], the IC50 is 10 to 1000 nM in experiment [1] and > 1000 nM in experiment [2].

Turning to `CC(c1oc(=O)c2ccccc2c1-c1cccc(S(=O)(=O)N2CCOCC2)c1)n1ncc2c(N)ncnc21` (stereo not shown) [Example 16, 3-(1-(4-Amino-1H-pyrazolo[3,4-d]pyrimidin-1-yl)ethyl)-4-(3-(morpholinosulfonyl)phenyl)-1H-isochromen-1-one], the IC50 in experiment [1] and in experiment [2] was 10 to 1000 nM each time.

As for `O=c1oc(CNc2ncnc3[nH]cnc23)c(-c2cccc(F)c2)c2ccccc12` [Example 21, 3-((9H-Purin-6-ylamino)methyl)-4-(3-fluorophenyl)-1H-isochromen-1-one], the IC50 in experiment [1] and in experiment [2] was 10 to 1000 nM throughout.

Consider `CC(Nc1ncnc2[nH]cnc12)c1oc(=O)c2ccccc2c1-c1ccc(OCCN2CCOCC2)cc1` (stereo not shown) [Example 26, 3-(1-(9H-Purin-6-ylamino)ethyl)-4-(4-(2-morpholinoethoxy)phenyl)-1H-isochromen-1-one formate], for which the IC50 in experiment [1] and in experiment [2] was 10 to 1000 nM each time.

`Cc1cccc(-c2c(CNc3ncnc4[nH]cnc34)oc(=O)c3ccccc23)c1` [Example 31, 3-((9H-Purin-6-ylamino)methyl)-4-m-tolyl-1H-isochromen-1-one]: the IC50 in experiment [1] and in experiment [2] was 10 to 1000 nM in each case.

Take `CC(Nc1ncnc2[nH]cnc12)c1oc(=O)c2ccccc2c1-c1cccc(F)c1` (stereo not shown) [Example 32, 3-(1-(9H-purin-6-ylamino)ethyl)-4-(3-fluorophenyl)-1H-isochromen-1-one]: the IC50 in experiment [1] was < 10 nM; in experiment [2] it was 10 to 1000 nM.

Consider `Cc1cccc(-c2c(C(C)Nc3ncnc4[nH]cnc34)oc(=O)c3ccccc23)c1` (stereo not shown) [Example 33, 3-(1-(9H-Purin-6-ylamino)ethyl)-4-m-tolyl-1H-isochromen-1-one], for which the values for the IC50 in experiment [1] and in experiment [2] were < 10 nM and 10 to 1000 nM, respectively.

With `Cc1n[nH]c2ccc(-c3nn(Cc4oc(=O)c5ccccc5c4-c4ccccc4)c4ncnc(N)c34)cc12` [Example 37, 3-((4-Amino-3-(3-methyl-1H-indazol-5-yl)-1H-pyrazolo[3,4-d]pyrimidin-1-yl)methyl)-4-phenyl-1H-isochromen-1-one], the IC50 in experiment [1] was 10 to 1000 nM; in experiment [2] it was > 1000 nM.

As to `CC(Nc1ncnc2[nH]ncc12)c1oc(=O)c2ccccc2c1-c1ccccc1` (stereo not shown) [Example 43, 3-(1-(1H-pyrazolo[3,4-d]pyrimidin-4-ylamino)ethyl)-4-phenyl-1H-isochromen-1-one], the IC50 in experiment [1] was 10 to 1000 nM; in experiment [2], > 1000 nM.

Take `CC(c1oc(=O)c2ccccc2c1-c1ccc(CN2CCOCC2)cc1)n1nc(-c2cc(O)cc(F)c2)c2c(N)ncnc21` (stereo not shown) [Example 48, 3-(1-(4-amino-3-(3-fluoro-5-hydroxyphenyl)-1H-pyrazolo[3,4-d]pyrimidin-1-yl)ethyl)-4-(4-(morpholinomethyl)phenyl)-1H-isochromen-1-one hydrochloride]: the IC50 in experiment [1] is < 10 nM; in experiment [2], 10 to 1000 nM.

On to `CC(c1oc(=O)c2ccccc2c1-c1ccccc1)n1nc(-c2ccnnc2)c2c(N)ncnc21` (stereo not shown) [Example 53, 3-(1-(4-amino-3-(pyridazin-4-yl)-1H-pyrazolo[3,4-d]pyrimidin-1-yl)ethyl)-4-phenyl-1H-isochromen-1-one], for which the IC50 in experiment [1] is 10 to 1000 nM; in experiment [2], > 1000 nM.

As for `CC(c1oc(=O)c2ccccc2c1-c1ccccc1)n1nc(-c2ccncc2)c2c(N)ncnc21` (stereo not shown) [Example 54, 3-(1-(4-amino-3-(pyridin-4-yl)-1H-pyrazolo[3,4-d]pyrimidin-1-yl)ethyl)-4-phenyl-1H-isochromen-1-one], the IC50 in experiment [1] and in experiment [2] was 10 to 1000 nM in each case.

In the case of `COc1ncc(-c2nn(C(C)c3oc(=O)c4ccccc4c3-c3ccccc3)c3ncnc(N)c23)cn1` (stereo not shown) [Example 55, 3-(1-(4-amino-3-(2-methoxypyrimidin-5-yl)-1H-pyrazolo[3,4-d]pyrimidin-1-yl)ethyl)-4-phenyl-1H-isochromen-1-one], the IC50 in experiment [1] is < 10 nM; in experiment [2], 10 to 1000 nM.

For `COc1cncc(-c2nn(C(C)c3oc(=O)c4ccccc4c3-c3ccccc3)c3ncnc(N)c23)c1` (stereo not shown) [Example 57, 3-(1-(4-amino-3-(5-methoxypyridin-3-yl)-1H-pyrazolo[3,4-d]pyrimidin-1-yl)ethyl)-4-phenyl-1H-isochromen-1-one], the IC50 in experiment [1] and in experiment [2] was 10 to 1000 nM each time.

Turning to `CC(Nc1ncnc2ccsc12)c1oc(=O)c2ccccc2c1-c1ccc(CN2CCOCC2)s1` (stereo not shown) [Example 81, 4-(5-(morpholinomethyl)thiophen-2-yl)-3-(1-(thieno[3,2-d]pyrimidin-4-ylamino)ethyl)-1H-isochromen-1-one hydrochloride], the IC50 in experiment [1] was 10 to 1000 nM; in experiment [2] it was > 1000 nM.

Turning to `CC(Nc1ncnn2cccc12)c1oc(=O)c2ccccc2c1-c1ccccc1` (stereo not shown) [Example 83, 4-phenyl-3-(1-(pyrrolo[2,1-f][1,2,4]triazin-4-ylamino)ethyl)-1H-isochromen-1-one], the IC50 in experiment [1] is 10 to 1000 nM; in experiment [2] it was > 1000 nM.

Take `CC(Nc1ncnc2cccnc12)c1oc(=O)c2ccccc2c1-c1ccccc1` (stereo not shown) [Example 84, 4-phenyl-3-(1-(pyrido[3,2-d]pyrimidin-4-ylamino)ethyl)-1H-isochromen-1-one]: the IC50 in experiment [1] and in experiment [2] was 10 to 1000 nM in each case.

Take `CC(c1oc(=O)c2ccccc2c1-c1ccccc1)n1nc(-c2cncc(CO)c2)c2c(N)ncnc21` (stereo not shown) [Example 85, 3-(1-(4-amino-3-(5-(hydroxymethyl)pyridin-3-yl)-1H-pyrazolo[3,4-d]pyrimidin-1-yl)ethyl)-4-phenyl-1H-isochromen-1-one]: the IC50 in experiment [1] and in experiment [2] was 10 to 1000 nM each time.

For `CC(c1oc(=O)c2ccccc2c1-c1ccccc1)n1nc(-c2ccc(CO)nc2)c2c(N)ncnc21` (stereo not shown) [Example 86, 3-(1-(4-amino-3-(6-(hydroxymethyl)pyridin-3-yl)-1H-pyrazolo[3,4-d]pyrimidin-1-yl)ethyl)-4-phenyl-1H-isochromen-1-one], the IC50 in experiment [1] is < 10 nM; in experiment [2] it was 10 to 1000 nM.

Consider `CC(c1oc(=O)c2ccccc2c1-c1ccccc1)n1nc(-c2ccnc(N)n2)c2c(N)ncnc21` (stereo not shown) [Example 89, 3-(1-(4-amino-3-(2-aminopyrimidin-4-yl)-1H-pyrazolo[3,4-d]pyrimidin-1-yl)ethyl)-4-phenyl-1H-isochromen-1-one hydrochloride], for which the results for the IC50 in experiment [1] and in experiment [2] were > 1000 nM and 10 to 1000 nM, respectively.

As for `CC(C)Oc1ccc(-c2nn(C(C)c3oc(=O)c4ccccc4c3-c3ccccc3)c3ncnc(N)c23)cc1F` (stereo not shown) [Example 93, 3-(1-(4-amino-3-(3-fluoro-4-isopropoxyphenyl)-1H-pyrazolo[3,4-d]pyrimidin-1-yl)ethyl)-4-phenyl-1H-isochromen-1-one], the IC50 in experiment [1] and in experiment [2] was 10 to 1000 nM throughout.

On to `CC(c1oc(=O)c2ccccc2c1-c1ccccc1)n1nc(-c2cncc(F)c2)c2c(N)ncnc21` (stereo not shown) [Example 94, 3-(1-(4-amino-3-(5-fluoropyridin-3-yl)-1H-pyrazolo[3,4-d]pyrimidin-1-yl)ethyl)-4-phenyl-1H-isochromen-1-one], for which the IC50 in experiment [1] and in experiment [2] was 10 to 1000 nM each time.
